As usually defined, the IC50 is the concentration needed to halve the response being measured. The low end stands for greater potency, the high end for weaker potency. One may read the Cmax as the highest concentration seen after dosing. In general, bioavailability refers to dose-corrected exposure relative to a reference, in per cent.

Series [1] has as its target T1, BRD4 BD2 (Homo sapiens, UniProt O60885).
T1 construct: HEK293 cells were transfected using NanoLuc-BRD4-BD1 or NanoLuc-BRD4-BD2 fusion vectors; host or cells: HEK293
Description: NanoBRET bromodomain assay, BRD4 BD2. Type of series: cell-based. The settings on record: for Fold selectivity BRD4 BD1/BD2: IC50 BD1/IC50 BD2; for IC50: NanoBRET, HEK293 cells transfected with NanoLuc-BRD4-BD2. Summed up:
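HEK293 cells transfected with NanoLuc-BRD4-BD2 fusion for 20-24 h, then treated with compound plus 1x tracer for 2 h at 37° C. Donor 450 nm / acceptor 610 nm emissions converted to background-corrected mBU; IC50 by nonlinear regression; selectivity as IC50 BD1/IC50 BD2.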
(In general: BRET reads energy transfer from a luciferase to a nearby fluorophore.)

Series [2] is described as follows: Mouse plasma stability. The following applies: 10 μM in mouse plasma, 37° C. Type of series: in vitro ADME. As for the experimental part: The stock solution of compound (10 or 50 mM) was prepared in DMSO. From the stock solution, a working solution of compound (500 uM) was prepared in DMSO (100%). To 735 μL of mouse plasma, 15 μL of working solution of compound was added—resulting in a final concentration of 10 μM (2% DMSO) for the compound. The sample was then incubated at 37° C. Aliquot was withdrawn at time-points—0, 15, 30, 60, 90 and 120 mins. The reaction was stopped by using chilled acetonitrile containing internal standard (IS). The samples were centrifuged and the supernatants analyzed using LC-MS/MS. The percent remaining of the compound at each time point was calculated with respect to the control sample (0 min time-point).

Series [3] in a line: Intrinsic clearance in rat liver microsomes. It counts as in vitro ADME. The settings on record: pH 7.4, NADPH, read-out: Rat Microsomal Stability T½. On the procedure: A 50 mM stock solution (in DMSO) was prepared for the compound. From the stock solution, a working solution of 0.5 mM was prepared by diluting the compound in DMSO. This concentration of working solution was prepared considering a final concentration of 1 uM with 0.1% DMSO. The compound (1 uL of working solution) was spiked in PBS with pH 7.4 (22 uL) at a concentration of 1 uM. Subsequently, 110 uL of 10 mM NADPH was added (as a co-factor). The sample was incubated at 37° C. for 15 min. Following this, pre-warmed rat liver microsomes (27.5 uL; final protein conc. 0.5 mg/mL) were added. The samples were then incubated at 37° C. Aliquots of samples were withdrawn at 0, 5, 15, 30, 45 and 60 min. The reaction was stopped by using chilled acetonitrile containing internal standard. The samples were centrifuged and the supernatants analysed by LC-MS/MS. The percent compound remaining at each time point was calculated with respect to that of the 0 min sample. The data were then analysed to calculate half-life. Note that control samples were run without NADPH and blank samples were prepared using DMSO without the test Compound.

Series [4] deals with T2, BRD4 BD1 (Homo sapiens, UniProt O60885).
T2 construct: HEK293 cells were transfected using NanoLuc-BRD4-BD1 or NanoLuc-BRD4-BD2 fusion vectors; host or cells: HEK293
Description: NanoBRET bromodomain assay, BRD4 BD1. Type of series: cell-based. The settings on record: HEK293 cells transfected with NanoLuc-BRD4-BD1. Summed up:
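Transfected HEK293 cells expressing NanoLuc-BRD4-BD1 were incubated with 1x tracer and serially diluted compound for 2 h at 37 °C, then given Nano-Glo substrate plus extracellular NanoLuc inhibitor. Donor 450 nm and acceptor 610 nm emissions were converted to background-corrected mBU, and IC50 was derived by nonlinear regression.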

Series [5] in a line: Balb/c mouse pharmacokinetics after oral (PO) dosing. It counts as in vivo. The following applies: male, plasma. As for the experimental part: Compounds were formulated in 5% DMSO, 40% PEG-400, 55% Milli-Q water at a concentration of 0.5 mg/mL for 5 mg/kg and 3 mg/mL for 30 mg/kg PO dosing. […] Blood was sampled at various timepoints and plasma isolated. 10 μL of plasma with 5 μL of blank Balb/c mouse plasma were added to 200 μL of acetonitrile containing IS mixture. The samples were vortexed for 30 s. After centrifugation at 4 degree Celsius, 3900 rpm for 15 min, the supernatant was diluted 3 times with water. 20 μL of diluted supernatant was injected into the LC/MS/MS system for quantitative analysis and concentration of analyte determined by comparison with matrix matched standard curve. WinNonlin (Phoenix™, version 8.3) or other similar software was used for pharmacokinetic calculations.

Turning to `Cc1cc(-c2cc3c(-c4cc(=O)n(C)cc4Oc4c(C)cccc4C)cn(C)c(=O)c3[nH]2)n(C)n1` [Example 7, 2-(1,3-dimethyl-1H-pyrazol-5-yl)-4-(5-(2,6-dimethylphenoxy)-1-methyl-2-oxo-1,2-dihydropyridin-4-yl)-6-methyl-1,6-dihydro-7H-pyrrolo[2,3-c] pyridin-7-one], in series [1], the “Fold selectivity BRD4 BD1/BD2” value is “xxx (Fold >200)” and the IC50 is at most 50 nM. In series [2], the “Mouse Plasma Stability % remaining at 120 minutes” value (shortened to “Mouse Plasma Stability % remaining”) is listed as 84%. Further, in series [3], the half-life at 1 uM was above 1 h. This compound had an IC50 in series [4] above 1000 nM.

Consider `Cc1cccc(C)c1Oc1cn(C)c(=O)cc1-c1cn(C)c(=O)c2[nH]c(-c3cnn(C(C)C)c3)cc12` [Example 11, 4-(5-(2,6-dimethylphenoxy)-1-methyl-2-oxo-1,2-dihydropyridin-4-yl)-2-(1-isopropyl-1H-pyrazol-4-yl)-6-methyl-1,6-dihydro-7H-pyrrolo[2,3-c] pyridin-7-one], for which, in series [1], the “Fold selectivity BRD4 BD1/BD2” value is “xx (Fold >50 and ≤200)”; the IC50 was at most 50 nM. In series [2], the “Mouse Plasma Stability % remaining” value came to 98%. Moreover, the half-life at 1 uM in series [3] was above 1 h. The compound further registered an IC50 in series [4] of 50 to 500 nM.

As for `Cc1cccc(C)c1Oc1cn(C)c(=O)cc1-c1cn(C)c(=O)c2[nH]c(-c3ccccc3F)cc12` [Example 14, 4-(5-(2,6-dimethylphenoxy)-1-methyl-2-oxo-1,2-dihydropyridin-4-yl)-2-(2-fluorophenyl)-6-methyl-1,6-dihydro-7H-pyrrolo[2,3-c] pyridin-7-one], in series [1], the “Fold selectivity BRD4 BD1/BD2” value is on record as “xxx (Fold >200)” and the IC50 is at most 50 nM. Further, the “Mouse Plasma Stability % remaining” value in series [2] is 99%. For the same compound, the half-life at 1 uM in series [3] was above 1 h. The 50% inhibitory concentration (IC50) in series [4] is above 1000 nM.

On to `Cc1cccc(C)c1Oc1cn(C)c(=O)cc1-c1cn(C)c(=O)c2[nH]c(-c3ccc(F)cc3F)cc12` [Example 47, 2-(2,4-difluorophenyl)-4-(5-(2,6-dimethylphenoxy)-1-methyl-2-oxo-1,2-dihydropyridin-4-yl)-6-methyl-1,6-dihydro-7H-pyrrolo[2,3-c] pyridin-7-one], for which, in series [1], the “Fold selectivity BRD4 BD1/BD2” value is on record as “xxx (Fold >200)” and the IC50 is at most 50 nM. In addition, in series [5] (5 mg/kg, Casette), the Cmax was found to be 718 ng/mL and the bioavailability turned out to be 100%. For the same compound, in series [4], the IC50 is above 1000 nM.

With `Cc1cccc(C)c1Oc1cn(C)c(=O)cc1-c1cn(C)c(=O)c2[nH]c(-c3cn(C(C)C)nc3C#N)cc12` [Example 49, 4-{4-[5-(2,6-dimethylphenoxy)-1-methyl-2-oxopyridin-4-yl]-6-methyl-7-oxo-1H-pyrrolo[2,3-c]pyridin-2-yl}-1-isopropylpyrazole-3-carbonitrile], in series [1], the “Fold selectivity BRD4 BD1/BD2” value is “xx (Fold >50 and ≤200)”; the IC50 is at most 50 nM. In addition, in series [5] (5 mg/kg, Casette), the Cmax was 19.3 ng/mL and the bioavailability was 7.81%. Further, in series [4], the IC50 lay in the range of 50 to 500 nM.

Regarding `Cc1cccc(C)c1Oc1cn(C)c(=O)cc1-c1cn(C)c(=O)c2[nH]c(-c3cccc(F)c3F)cc12` [Example 50, 4-[2-(2,3-difluorophenyl)-6-methyl-7-oxo-1H-pyrrolo[2,3-c]pyridin-4-yl]-5-(2,6-dimethylphenoxy)-1-methylpyridin-2-one], in series [1], the “Fold selectivity BRD4 BD1/BD2” value is listed as “xxx (Fold >200)” and the IC50 was at most 50 nM. Also, in series [5] (5 mg/kg, Casette), the concentration peaked (Cmax) at 293 ng/mL and the bioavailability came out at 73%. Moreover, in series [4], the concentration for half-maximal inhibition (IC50) is above 1000 nM.

For `Cc1cccc(C)c1Oc1cn(C)c(=O)cc1-c1cn(C)c(=O)c2[nH]c(-c3ccc(=O)n(C)c3)cc12` [Example 51, 5-(2,6-dimethylphenoxy)-1-methyl-4-[6-methyl-2-(1-methyl-6-oxopyridin-3-yl)-7-oxo-1H-pyrrolo[2,3-c]pyridin-4-yl]pyridin-2-one], in series [1], the “Fold selectivity BRD4 BD1/BD2” value was “xx (Fold >50 and ≤200)”; the IC50 lay within 50 to 200 nM. In series [5] (5 mg/kg, Casette), this compound displayed a Cmax of 24.4 ng/mL and a bioavailability of 6.83%. Also, the IC50 in series [4] is above 1000 nM.

For `Cc1cc(-c2cc3c(-c4cc(=O)n(C5CC5)cc4Oc4c(C)cccc4C)cn(C)c(=O)c3[nH]2)cc(C)n1` [Example 59, 1-cyclopropyl-5-(2,6-dimethylphenoxy)-4-[2-(2,6-dimethylpyridin-4-yl)-6-methyl-7-oxo-1H-pyrrolo[2,3-c]pyridin-4-yl]pyridin-2-one], in series [1], the “Fold selectivity BRD4 BD1/BD2” value was “xxx (Fold >200)” and the IC50 was at most 50 nM. Besides, in series [5] (30 mg/kg, Individual), the Cmax was 5460 ng/mL and the bioavailability turned out to be 100%. Moreover, in series [4], the IC50 is above 1000 nM.

Turning to `Cc1cc(-c2cc3c(-c4cc(=O)n(C)cc4-c4ccccc4)cn(C)c(=O)c3[nH]2)n(C)n1` [Example 60, 2-(1,3-dimethyl-1H-pyrazol-5-yl)-6-methyl-4-(1-methyl-2-oxo-5-phenyl-1,2-dihydropyridin-4-yl)-1,6-dihydro-7H-pyrrolo[2,3-c] pyridin-7-one], in series [1], the “Fold selectivity BRD4 BD1/BD2” value was “xxx (Fold >200)” and the half-maximal inhibitory concentration (IC50) is at most 50 nM. In series [5] (5 mg/kg, Casette), this compound registered a Cmax of 631 ng/mL and a bioavailability of 59.9%. Further, the IC50 in series [4] was above 1000 nM.

With `CC(C)n1cc(-c2cc3c(-c4cc(=O)n(C)cc4-c4ccccc4)cn(C)c(=O)c3[nH]2)cn1` [Example 61, 4-[2-(1-isopropylpyrazol-4-yl)-6-methyl-7-oxo-1H-pyrrolo[2,3-c]pyridin-4-yl]-1-methyl-5-phenylpyridin-2-one], in series [1], the “Fold selectivity BRD4 BD1/BD2” value is listed as “xxx (Fold >200)” and the IC50 was at most 50 nM. Further, in series [5] (5 mg/kg, Casette), the Cmax amounted to 622 ng/mL and the bioavailability was determined as 51.2%. Also, the IC50 in series [4] was above 1000 nM.

As for `Cc1cc(-c2cc3c(-c4cc(=O)n(C)cc4-c4ccccc4)cn(C)c(=O)c3[nH]2)cc(C)n1` [Example 62, 4-[2-(2,6-dimethylpyridin-4-yl)-6-methyl-7-oxo-1H-pyrrolo[2,3-c]pyridin-4-yl]-1-methyl-5-phenylpyridin-2-one], in series [1], the “Fold selectivity BRD4 BD1/BD2” value is “xxx (Fold >200)” and the IC50 is at most 50 nM. In series [5] (5 mg/kg, Casette), the concentration peaked (Cmax) at 1290 ng/mL and the bioavailability worked out at 88.7%. The IC50 in series [4] fell in the range of 50 to 500 nM.

On to `Cn1cc(-c2ccccc2)c(-c2cn(C)c(=O)c3[nH]c(-c4ccccc4)cc23)cc1=O` [Example 63, 1-methyl-4-{6-methyl-7-oxo-2-phenyl-1H-pyrrolo[2,3-c]pyridin-4-yl}-5-phenylpyridin-2-one], for which, in series [1], the “Fold selectivity BRD4 BD1/BD2” value is recorded as “xxx (Fold >200)” and the IC50 was at most 50 nM. In series [5] (5 mg/kg, Casette), the peak level (Cmax) was 1590 ng/mL and the bioavailability came to 86.5%. The IC50 in series [4] was above 1000 nM.

`Cc1cccc(C)c1Oc1cn(C)c(=O)cc1-c1cn(C)c(=O)c2[nH]c(-c3cn(C4COC4)nc3C)cc12` [Example 64, 4-(5-(2,6-dimethylphenoxy)-1-methyl-2-oxo-1,2-dihydropyridin-4-yl)-6-methyl-2-(3-methyl-1-(oxetan-3-yl)-1H-pyrazol-4-yl)-1,6-dihydro-7H-pyrrolo[2,3-c]pyridin-7-one]: in series [1], the “Fold selectivity BRD4 BD1/BD2” value was “xx (Fold >50 and ≤200)”; the IC50 was at most 50 nM. In series [5] (30 mg/kg, Individual), the Cmax was determined as 1010 ng/mL and the bioavailability amounted to 12.5%. Besides, in series [4], the IC50 lay in the range of 500 to 1000 nM.

Source of the values: patent US20240308998A1, “PYRROLOPYRIDONE DERIVATIVES USEFUL IN THE TREATMENT OF CANCER” (Tay Therapeutics Limited, priority 2021, published 2024).
